Drawing on ChEMBL document CHEMBL1811842, “Synthesis and evaluation of biotinylated sansalvamide A analogs and their modulation of Hsp90” (Bioorg Med Chem Lett, 2011), this text covers Activity for three compounds.

Activity calls are given as the source filed them. The calls are words filed in the database; no cut-off is given here.

The target in this experiment is Heat shock protein HSP90 (Homo sapiens) (UniProt P07900+P08238). The experiment can be described thus: Binding affinity to human HSP90-N-Middle Domain expressed in BL21 Escherichia coli after 2 hrs using silver staining by Pull down assay.
On to `CC(C)[C@@H]1NC(=O)[C@H](CCCCNC(=O)CCOCCOCCOCCOCCNC(=O)CCCC[C@@H]2SC[C@@H]3NC(=O)N[C@@H]32)NC(=O)[C@H](CCCCNC(=O)OCc2ccccc2)NC(=O)[C@H](Cc2ccccc2)NC(=O)[C@@H](Cc2ccccc2)N(C)C1=O`, for which the result was Active.
The result for `CC(C)C[C@@H]1NC(=O)[C@H](CCCCNC(=O)OCc2ccccc2)NC(=O)[C@H](CCCCNC(=O)CCOCCOCCOCCOCCNC(=O)CCCC[C@@H]2SC[C@@H]3NC(=O)N[C@@H]32)NC(=O)[C@@H](Cc2ccccc2)N(C)C(=O)[C@H](C(C)C)NC1=O` reads “Active”; that for `CC(C)C[C@@H]1NC(=O)[C@H](CCCCNC(=O)OCc2ccccc2)NC(=O)[C@H](Cc2ccccc2)NC(=O)[C@@H](Cc2ccccc2)N(C)C(=O)[C@H](CCCCNC(=O)CCOCCOCCOCCOCCNC(=O)CCCC[C@@H]2SC[C@@H]3NC(=O)N[C@@H]32)NC1=O`, “Active”.
